Like-named read-outs stand apart in the source and are kept apart here. Marks after values point to notes of the source that are not given here. Values belong to the compound of their own block, whether it stands above or below them.
What was measured:
[1] = Pharmacokinetics in osteoarthritis patients, plasma concentrations by LC/MS; type: in vivo, human; conditions: for Tmax / Cmax / AUC(0-t) / AUC: plasma; for AUC(0-t): read-out: AUC0-6
Procedure: (§1) A four week multicenter randomized double-blind double-dummy placebo-controlled parallel group trial (the study) of four dosing regimens of 5-methyl-2-(2′-chloro-6′-fluoroanilino)phenylacetic acid in patients with knee or hip primary osteoarthritis is performed, using diclofenac as a comparator. Patients are male and female, from 18 to 75 years of age, have a clinical and radiological diagnosis of knee or hip osteoarthritis as defined by the American College of Rheumatology criteria, and have a pain intensity of at least 40 mm (Visual Analog Scale) in the affected joint prior to screening for inclusion in the study. 584 patients are randomized to receive either 50, 100, or 200 mg 5-methyl-2-(2′-chloro-6′-fluoroanilino)phenylacetic acid or 75 mg diclofenac administered orally twice a day, or 400 mg 5-methyl-2-(2′-chloro-6′-fluoroanilino)phenylacetic acid administered orally once a day, or placebo. Drug and placebo are administered in capsules. The comparator, diclofenac, is an extended release tablet that is over-encapsulated to match the placebo. The treatment duration is for 28 days.
(§2) Pharmacokinetics are performed on 52 of the patients who receive 5-methyl-2-(2′-chloro-6′-fluoroanilino)phenylacetic acid. Blood samples are taken at 0, 0.5, 1, 2, 3, 4 and 6 hours following administration of 5-methyl-2-(2′-chloro-6′-fluoroanilino)phenylacetic acid. Plasma concentrations of 5-methyl-2-(2′-chloro-6′-fluoroanilino)phenylacetic acid are measured by an LC/MS assay with a limit of quantitation of 10 ng/ml. Cmax and tmax AUC (0-6) are determined for day 1 and Cmax^ss and tmax^ss AUCτ^ss, Cmin^ss, Cav^ss, peak-trough fluctuation (PTF) and Cl/F at steady state are determined on day 28. The primary efficacy parameter is the most pain experienced over the previous 24 hours on a 100 mm VAS.

[2] = tested on: patients with knee or hip primary osteoarthritis; test: Four week placebo-controlled trial, most pain over the previous 24 hours on a 100 mm VAS; type: in vivo, human
Procedure: as §1, §2

[3] = both sexes, human, po, 50 mg, 50 mg bid oral, day 0
[4] = both sexes, human, po, 50 mg, 50 mg bid oral, day 28
[5] = both sexes, human, po, 100 mg, 100 mg bid oral, day 0
[6] = both sexes, human, po, 100 mg, 100 mg bid oral, day 28
[7] = both sexes, human, po, 200 mg, 200 mg bid oral, day 0
[8] = both sexes, human, po, 200 mg, 200 mg bid oral, day 28
[9] = both sexes, human, po, 400 mg, 400 mg qd oral, day 0
[10] = both sexes, human, po, 400 mg, 400 mg qd oral, day 28

CLss/F ([1]; 50 mg bid oral, day 28): 15.0 ± 4.7 L/h
CLss/F ([1]; 100 mg bid oral, day 28): 13.3 ± 3.3 L/h
CLss/F ([1]; 200 mg bid oral, day 28): 15.0 ± 3.5 L/h
CLss/F ([1]; 400 mg qd oral, day 28): 17.4 ± 6.1 L/h
Dose dependence of AUC and Cmax ([1]; 50, 100, 200 mg twice daily and 400 mg once daily, day 28): dose proportional increase
Tmax ([1]; both sexes, human, oral, all dose groups, read-out: tmax, typical): 2 to 3 h
Cmax [1, 3]: 914 ± 340 ng/mL
AUC(0-t) [1, 3]: 2680 ± 960 ng·h/mL
Tmax ([1]; both sexes, human, po, 50 mg, 50 mg bid oral, day 0, read-out: tmax): 2 h
Cmax [1, 4]: 1010 ± 590 ng/mL
AUC(0-t) [1, 4]: 2810 ± 1210 ng·h/mL
Tmax ([1]; both sexes, human, po, 50 mg, 50 mg bid oral, day 28, read-out: tmax): 2 h
Cmax [1, 5]: 1790 ± 600 ng/mL
AUC(0-t) [1, 5]: 5220 ± 1810 ng·h/mL
Tmax ([1]; both sexes, human, po, 100 mg, 100 mg bid oral, day 0, read-out: tmax): 2.5 h
Cmax [1, 6]: 1860 ± 630 ng/mL
AUC(0-t) [1, 6]: 6010 ± 1890 ng·h/mL
Tmax ([1]; both sexes, human, po, 100 mg, 100 mg bid oral, day 28, read-out: tmax): 2 h
Cmax [1, 7]: 4210 ± 2160 ng/mL
AUC(0-t) [1, 7]: 11700 ± 3570 ng·h/mL
Tmax ([1]; both sexes, human, po, 200 mg, 200 mg bid oral, day 0, read-out: tmax): 3 h
Cmax [1, 8]: 4380 ± 3100 ng/mL
AUC(0-t) [1, 8]: 11100 ± 3020 ng·h/mL
Tmax ([1]; both sexes, human, po, 200 mg, 200 mg bid oral, day 28, read-out: tmax): 2 h
Cmax [1, 9]: 5540 ± 1800 ng/mL
AUC(0-t) [1, 9]: 17200 ± 5280 ng·h/mL
Tmax ([1]; both sexes, human, po, 400 mg, 400 mg qd oral, day 0, read-out: tmax): 3 h
Cmax [1, 10]: 4790 ± 2640 ng/mL
AUC(0-t) [1, 10]: 15300 ± 5590 ng·h/mL
Tmax ([1]; both sexes, human, po, 400 mg, 400 mg qd oral, day 28, read-out: tmax): 2 h
AUC ([1]; both sexes, human, 50 mg bid oral, day 28): 3660 ± 1290 ng·h/mL
AUC ([1]; both sexes, human, 100 mg bid oral, day 28): 8100 ± 2730 ng·h/mL
AUC ([1]; both sexes, human, 200 mg bid oral, day 28): 14000 ± 3220 ng·h/mL
AUC ([1]; both sexes, human, 400 mg qd oral, day 28): 25800 ± 9200 ng·h/mL
half-life ([1]; both sexes, human, blood plasma, oral administration): 3 to 6 h
Compound: Cc1ccc(Nc2c(F)cccc2Cl)c(CC(=O)O)c1 [5-methyl-2-(2′-chloro-6′-fluoroanilino)phenylacetic acid]
VAS pain, change from baseline ([2]; 50 mg bid, day 7, 100 mm VAS): −19.5 (19.1)* mm
VAS pain, change from baseline ([2]; 50 mg bid, day 14, 100 mm VAS): −22.6 (20.9)* mm
VAS pain, change from baseline ([2]; 50 mg bid, day 28, 100 mm VAS): −28.6 mm
VAS pain, change from baseline ([2]; 100 mg bid, day 7, 100 mm VAS): −19.2 (21.6)* mm
VAS pain, change from baseline ([2]; 100 mg bid, day 14, 100 mm VAS): −21.2 (22.6)* mm
VAS pain, change from baseline ([2]; 100 mg bid, day 28, 100 mm VAS): −26.3 mm
VAS pain, change from baseline ([2]; 200 mg bid, day 7, 100 mm VAS): −22.0 (20.8)* mm
VAS pain, change from baseline ([2]; 200 mg bid, day 14, 100 mm VAS): −24.1 (22.8)* mm
VAS pain, change from baseline ([2]; 200 mg bid, day 28, 100 mm VAS): −29.6 mm
Pain relief of 400 mg once daily compared with 200 mg twice daily ([2]; 400 mg once daily): the same or better pain relief as 200 mg twice daily
Mean VAS scores compared with the other dose groups ([2]; 400 mg once daily, day 28, throughout the measurement period): best mean scores
VAS pain, change from baseline ([2]; 400 mg qd, day 7, 100 mm VAS): −26.0 (22.4)*a, b mm
VAS pain, change from baseline ([2]; 400 mg qd, day 14, 100 mm VAS): −27.5 (23.8)* mm
VAS pain, change from baseline ([2]; 400 mg qd, day 28, 100 mm VAS): −33.2 mm
Duration of effective anti-inflammatory treatment after a single oral dose ([2]; about 200 to about 1200 mg per day, immediate-release formulation, humans): 24 h

Compound: O=C(O)Cc1ccccc1Nc1c(Cl)cccc1Cl [diclofenac, reference compound]
VAS pain, change from baseline ([2]; 75 mg twice a day, extended release tablet, day 7, 100 mm VAS): −27.9 mm
VAS pain, change from baseline ([2]; 75 mg twice a day, extended release tablet, day 14, 100 mm VAS): −30.4 (23.0)* mm
VAS pain, change from baseline ([2]; 75 mg twice a day, extended release tablet, day 28, 100 mm VAS): −31.8 mm
